Assay results published in article PMC6688997 (Nature Communications, 2019).
Like-named read-outs stand apart in the source and are kept apart here.

Key:
[1] = target: T1, MER (Homo sapiens, UniProt Q12866); assay: Kinase assay, ATP Km; format: biochemical
T1 construct: purchased Carna Biosciences

[2] = target: T2, LYNb (Homo sapiens, UniProt P07948); assay: Kinase assay, ATP Km; format: biochemical
T2 construct: purchased Carna Biosciences

[3] = target: T3, MST3 (Homo sapiens, UniProt Q9Y6E0); assay: Kinase assay, ATP Km; format: biochemical
T3 construct: purchased Carna Biosciences

[4] = target: T4, PKD2 (Homo sapiens, UniProt Q9BZL6); assay: Kinase assay, ATP Km; format: biochemical
T4 construct: purchased Carna Biosciences

[5] = target: CK2α2/β (Homo sapiens, UniProt P19784); assay: Kinase assay, ATP Km; format: biochemical
[6] = target: T5, HER4 (Homo sapiens, UniProt Q15303); assay: Kinase assay, ATP Km; format: biochemical
T5 construct: purchased Carna Biosciences

[7] = target: BLK (Homo sapiens, UniProt P51451); assay: Kinase assay, ATP Km; format: biochemical
[8] = target: MARK1 (Homo sapiens, UniProt Q9P0L2); assay: Kinase assay, ATP Km; format: biochemical
[9] = target: EPHA7 (Homo sapiens, UniProt Q15375); assay: Kinase assay, ATP Km; format: biochemical
[10] = target: PHKG2 (Homo sapiens, UniProt P15735); assay: Kinase assay, ATP Km; format: biochemical
[11] = target: ARG (Homo sapiens, UniProt P42684); assay: Kinase assay, ATP Km; format: biochemical
[12] = target: T6, TEC (Homo sapiens, UniProt P42680); assay: Kinase assay, ATP Km; format: biochemical
T6 construct: purchased Carna Biosciences

[13] = target: T7, PLK2 (Homo sapiens, UniProt Q9NYY3); assay: Kinase assay, ATP Km; format: biochemical
T7 construct: purchased Carna Biosciences

[14] = target: EPHA5 (Homo sapiens, UniProt P54756); assay: Kinase assay, ATP Km; format: biochemical
[15] = system: Ba/F3 TPM3-NTRK1 D679G cells; assay: CellTiter-Glo cell viability assay; format: cell-based, murine; settings: Mus musculus, BaF3, 72 h
[16] = target: CK2α1/β (Homo sapiens, UniProt P68400); assay: Kinase assay, ATP Km; format: biochemical
[17] = target: T8, ALK (Homo sapiens, UniProt Q9UM73); assay: Kinase assay, 1 mM ATP; format: biochemical
T8 construct: purchased Carna Biosciences, Inc. (Kobe, Japan); assay run by the vendor

[18] = target: T9, PAK2 (Homo sapiens, UniProt Q13177); assay: Kinase assay, ATP Km; format: biochemical
T9 construct: purchased Carna Biosciences

[19] = target: EPHB2 (Homo sapiens, UniProt P29323); assay: Kinase assay, ATP Km; format: biochemical
[20] = target: T10, MSSK1 (Homo sapiens, UniProt Q9UPE1); assay: Kinase assay, ATP Km; format: biochemical
T10 construct: purchased Carna Biosciences

[21] = target: CDK5/p25 (Homo sapiens, UniProt Q00535); assay: Kinase assay, ATP Km; format: biochemical
[22] = target: JNK3 (Homo sapiens, UniProt P53779); assay: Kinase assay, ATP Km; format: biochemical
[23] = system: Ba/F3 TPM3-NTRK1 G667C cells; assay: CellTiter-Glo cell viability assay; format: cell-based, murine; settings: 72 h
[24] = system: Ba/F3-CD74-ROS1-WT xenograft; format: in vivo, mouse; settings: for Tumor volume (average / SE): ROS1-WT xenograft
[25] = target: CRIK (Homo sapiens, UniProt O14578); assay: Kinase assay, ATP Km; format: biochemical
[26] = target: T11, NEK1 (Homo sapiens, UniProt Q96PY6); assay: Kinase assay, ATP Km; format: biochemical
T11 construct: purchased Carna Biosciences

[27] = target: T12, MAP4K2 (Homo sapiens, UniProt Q12851); assay: Kinase assay, ATP Km; format: biochemical
T12 construct: purchased Carna Biosciences

[28] = target: T13, MNK1 (Homo sapiens, UniProt Q9BUB5); assay: Kinase assay, ATP Km; format: biochemical
T13 construct: purchased Carna Biosciences

[29] = system: Ba/F3-ETV6-NTRK2 cells; assay: CellTiter-Glo cell viability assay; format: cell-based, murine; settings: Mus musculus; source data sheet
[30] = target: T14, AurC (Homo sapiens, UniProt Q9UQB9); assay: Kinase assay, ATP Km; format: biochemical
T14 construct: purchased Carna Biosciences

[31] = target: T15, RSK4 (Homo sapiens, UniProt Q9UK32); assay: Kinase assay, ATP Km; format: biochemical
T15 construct: purchased Carna Biosciences

[32] = target: T16, TRKB (NTRK2) (Homo sapiens, UniProt Q16620); assay: Kinase assay, ATP Km; format: biochemical; settings: for IC50: ATP: Km
T16 construct: purchased Carna Biosciences, Inc. (Kobe, Japan); assay run by the vendor

[33] = target: T17, NTRK3 (Homo sapiens, UniProt Q16288); assay: Kinase assay, 1 mM ATP; format: biochemical
T17 construct: purchased Carna Biosciences, Inc. (Kobe, Japan)

[34] = target: T18, MNK2 (Homo sapiens, UniProt Q9HBH9); assay: Kinase assay, ATP Km; format: biochemical
T18 construct: purchased Carna Biosciences

[35] = target: T19, MSK2 (Homo sapiens, UniProt O75676); assay: Kinase assay, ATP Km; format: biochemical
T19 construct: purchased Carna Biosciences

[36] = target: T20, INSR (Homo sapiens, UniProt P06213); assay: Kinase assay, ATP Km; format: biochemical
T20 construct: purchased Carna Biosciences

[37] = target: QIK (Homo sapiens, UniProt Q9H0K1); assay: Kinase assay, ATP Km; format: biochemical
[38] = target: T21, HIPK3 (Homo sapiens, UniProt Q9H422); assay: Kinase assay, ATP Km; format: biochemical
T21 construct: purchased Carna Biosciences

T8 sequence (Q9UM73 19-1620): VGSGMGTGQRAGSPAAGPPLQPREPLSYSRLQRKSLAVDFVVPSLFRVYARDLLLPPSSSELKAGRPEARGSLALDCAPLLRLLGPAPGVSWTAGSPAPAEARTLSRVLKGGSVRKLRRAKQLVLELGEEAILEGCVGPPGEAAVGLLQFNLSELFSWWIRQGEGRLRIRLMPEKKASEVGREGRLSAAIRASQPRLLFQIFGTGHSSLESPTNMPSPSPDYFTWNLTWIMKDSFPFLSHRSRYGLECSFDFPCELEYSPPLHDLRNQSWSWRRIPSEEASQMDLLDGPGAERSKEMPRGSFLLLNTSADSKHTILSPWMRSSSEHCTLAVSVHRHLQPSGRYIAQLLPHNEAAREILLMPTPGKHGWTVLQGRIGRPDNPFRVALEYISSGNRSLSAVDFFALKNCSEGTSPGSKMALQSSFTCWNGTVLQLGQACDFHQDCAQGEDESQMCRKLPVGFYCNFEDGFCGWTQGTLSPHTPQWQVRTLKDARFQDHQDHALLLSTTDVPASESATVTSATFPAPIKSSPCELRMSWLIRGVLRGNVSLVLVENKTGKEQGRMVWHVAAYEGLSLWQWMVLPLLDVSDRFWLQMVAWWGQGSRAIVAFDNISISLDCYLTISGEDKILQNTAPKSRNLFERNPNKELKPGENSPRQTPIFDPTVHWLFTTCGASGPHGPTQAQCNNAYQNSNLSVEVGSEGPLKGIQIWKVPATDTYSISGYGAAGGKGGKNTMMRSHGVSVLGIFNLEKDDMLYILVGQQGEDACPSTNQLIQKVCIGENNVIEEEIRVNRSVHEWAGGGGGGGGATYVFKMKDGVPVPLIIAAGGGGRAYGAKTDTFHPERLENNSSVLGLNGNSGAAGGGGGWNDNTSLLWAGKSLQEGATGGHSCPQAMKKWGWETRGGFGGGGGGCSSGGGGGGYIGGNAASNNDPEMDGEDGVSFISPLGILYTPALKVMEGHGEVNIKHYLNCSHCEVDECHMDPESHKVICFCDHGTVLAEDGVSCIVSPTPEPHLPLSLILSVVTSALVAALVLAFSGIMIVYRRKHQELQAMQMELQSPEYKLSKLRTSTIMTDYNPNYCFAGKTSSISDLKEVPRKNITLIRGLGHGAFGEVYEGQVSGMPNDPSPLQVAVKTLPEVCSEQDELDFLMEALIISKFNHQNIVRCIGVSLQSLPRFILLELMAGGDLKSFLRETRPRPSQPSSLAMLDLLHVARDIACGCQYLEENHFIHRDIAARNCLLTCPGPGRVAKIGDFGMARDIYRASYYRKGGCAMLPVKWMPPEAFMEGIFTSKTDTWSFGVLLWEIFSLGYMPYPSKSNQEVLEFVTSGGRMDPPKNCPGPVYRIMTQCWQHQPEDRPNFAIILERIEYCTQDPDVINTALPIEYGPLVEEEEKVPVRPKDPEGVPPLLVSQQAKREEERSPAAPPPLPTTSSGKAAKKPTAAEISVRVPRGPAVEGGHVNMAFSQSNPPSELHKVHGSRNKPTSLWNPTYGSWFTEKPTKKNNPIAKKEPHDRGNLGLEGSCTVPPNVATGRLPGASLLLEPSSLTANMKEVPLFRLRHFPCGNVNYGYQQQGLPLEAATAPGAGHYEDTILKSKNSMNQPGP
T16 sequence (Q16620 32-822): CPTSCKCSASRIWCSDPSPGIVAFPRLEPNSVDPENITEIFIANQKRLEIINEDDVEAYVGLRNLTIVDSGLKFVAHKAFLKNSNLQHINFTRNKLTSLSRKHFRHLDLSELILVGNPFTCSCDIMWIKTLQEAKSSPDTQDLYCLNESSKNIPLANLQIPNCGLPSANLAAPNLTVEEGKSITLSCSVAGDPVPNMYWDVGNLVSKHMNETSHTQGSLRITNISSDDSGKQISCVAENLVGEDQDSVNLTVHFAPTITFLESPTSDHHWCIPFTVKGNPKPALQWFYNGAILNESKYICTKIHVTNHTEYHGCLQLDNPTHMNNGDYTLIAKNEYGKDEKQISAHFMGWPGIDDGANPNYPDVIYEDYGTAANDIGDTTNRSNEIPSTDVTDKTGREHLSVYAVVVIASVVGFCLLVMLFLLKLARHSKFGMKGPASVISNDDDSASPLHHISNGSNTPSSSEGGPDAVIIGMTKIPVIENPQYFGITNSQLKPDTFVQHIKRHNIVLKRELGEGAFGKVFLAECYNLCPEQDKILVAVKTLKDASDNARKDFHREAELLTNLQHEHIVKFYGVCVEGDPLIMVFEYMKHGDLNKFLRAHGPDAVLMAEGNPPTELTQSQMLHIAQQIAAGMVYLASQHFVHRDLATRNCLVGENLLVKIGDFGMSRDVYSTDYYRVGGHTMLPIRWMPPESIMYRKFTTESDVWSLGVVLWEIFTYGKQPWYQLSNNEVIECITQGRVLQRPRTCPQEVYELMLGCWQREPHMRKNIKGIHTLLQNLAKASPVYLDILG
T17 sequence (Q16288 32-839): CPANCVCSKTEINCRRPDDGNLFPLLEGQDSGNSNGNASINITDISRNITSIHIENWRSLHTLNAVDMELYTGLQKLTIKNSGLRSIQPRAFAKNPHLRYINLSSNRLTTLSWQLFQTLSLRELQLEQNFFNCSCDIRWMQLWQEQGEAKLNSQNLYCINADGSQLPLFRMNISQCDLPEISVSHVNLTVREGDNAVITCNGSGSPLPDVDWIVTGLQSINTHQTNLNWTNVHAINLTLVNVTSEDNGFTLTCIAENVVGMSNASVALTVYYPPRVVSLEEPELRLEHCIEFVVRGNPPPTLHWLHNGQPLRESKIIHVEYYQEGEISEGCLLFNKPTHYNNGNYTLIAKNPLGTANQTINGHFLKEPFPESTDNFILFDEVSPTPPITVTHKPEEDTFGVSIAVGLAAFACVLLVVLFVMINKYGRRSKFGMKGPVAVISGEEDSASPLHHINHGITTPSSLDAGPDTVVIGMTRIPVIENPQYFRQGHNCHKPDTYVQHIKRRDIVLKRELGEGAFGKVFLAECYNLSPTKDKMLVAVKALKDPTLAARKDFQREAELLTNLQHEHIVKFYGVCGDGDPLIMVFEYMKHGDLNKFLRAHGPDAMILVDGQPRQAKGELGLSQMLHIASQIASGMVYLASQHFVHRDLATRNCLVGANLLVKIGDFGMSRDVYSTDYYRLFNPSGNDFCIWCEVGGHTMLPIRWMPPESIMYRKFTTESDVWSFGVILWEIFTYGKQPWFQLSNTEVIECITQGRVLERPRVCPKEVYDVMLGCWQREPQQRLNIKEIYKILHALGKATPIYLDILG
T4 sequence (Q9BZL6 whole entry): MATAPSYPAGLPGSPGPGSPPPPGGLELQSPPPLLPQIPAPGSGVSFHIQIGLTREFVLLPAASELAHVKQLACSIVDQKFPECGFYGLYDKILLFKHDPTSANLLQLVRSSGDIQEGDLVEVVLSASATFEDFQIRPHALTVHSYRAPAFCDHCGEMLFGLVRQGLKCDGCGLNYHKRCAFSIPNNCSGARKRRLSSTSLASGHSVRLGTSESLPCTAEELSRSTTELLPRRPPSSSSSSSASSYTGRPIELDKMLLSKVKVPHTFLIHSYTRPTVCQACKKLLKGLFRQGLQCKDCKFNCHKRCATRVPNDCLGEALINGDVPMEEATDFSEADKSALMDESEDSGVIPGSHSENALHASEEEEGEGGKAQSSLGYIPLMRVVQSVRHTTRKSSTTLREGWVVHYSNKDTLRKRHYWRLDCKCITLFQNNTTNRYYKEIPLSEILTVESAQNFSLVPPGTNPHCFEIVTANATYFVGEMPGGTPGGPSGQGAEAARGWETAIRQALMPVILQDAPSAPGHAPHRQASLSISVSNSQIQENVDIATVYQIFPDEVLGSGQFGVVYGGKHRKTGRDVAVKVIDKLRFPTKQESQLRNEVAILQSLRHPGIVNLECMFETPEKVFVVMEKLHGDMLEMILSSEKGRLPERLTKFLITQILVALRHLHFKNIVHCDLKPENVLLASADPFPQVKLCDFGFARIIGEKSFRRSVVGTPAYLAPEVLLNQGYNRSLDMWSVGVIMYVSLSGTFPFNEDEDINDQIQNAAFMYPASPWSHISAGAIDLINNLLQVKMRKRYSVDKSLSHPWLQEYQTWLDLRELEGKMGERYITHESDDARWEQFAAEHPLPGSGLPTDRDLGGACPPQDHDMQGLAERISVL
Chain of EPHA7 (Q15375 28-998): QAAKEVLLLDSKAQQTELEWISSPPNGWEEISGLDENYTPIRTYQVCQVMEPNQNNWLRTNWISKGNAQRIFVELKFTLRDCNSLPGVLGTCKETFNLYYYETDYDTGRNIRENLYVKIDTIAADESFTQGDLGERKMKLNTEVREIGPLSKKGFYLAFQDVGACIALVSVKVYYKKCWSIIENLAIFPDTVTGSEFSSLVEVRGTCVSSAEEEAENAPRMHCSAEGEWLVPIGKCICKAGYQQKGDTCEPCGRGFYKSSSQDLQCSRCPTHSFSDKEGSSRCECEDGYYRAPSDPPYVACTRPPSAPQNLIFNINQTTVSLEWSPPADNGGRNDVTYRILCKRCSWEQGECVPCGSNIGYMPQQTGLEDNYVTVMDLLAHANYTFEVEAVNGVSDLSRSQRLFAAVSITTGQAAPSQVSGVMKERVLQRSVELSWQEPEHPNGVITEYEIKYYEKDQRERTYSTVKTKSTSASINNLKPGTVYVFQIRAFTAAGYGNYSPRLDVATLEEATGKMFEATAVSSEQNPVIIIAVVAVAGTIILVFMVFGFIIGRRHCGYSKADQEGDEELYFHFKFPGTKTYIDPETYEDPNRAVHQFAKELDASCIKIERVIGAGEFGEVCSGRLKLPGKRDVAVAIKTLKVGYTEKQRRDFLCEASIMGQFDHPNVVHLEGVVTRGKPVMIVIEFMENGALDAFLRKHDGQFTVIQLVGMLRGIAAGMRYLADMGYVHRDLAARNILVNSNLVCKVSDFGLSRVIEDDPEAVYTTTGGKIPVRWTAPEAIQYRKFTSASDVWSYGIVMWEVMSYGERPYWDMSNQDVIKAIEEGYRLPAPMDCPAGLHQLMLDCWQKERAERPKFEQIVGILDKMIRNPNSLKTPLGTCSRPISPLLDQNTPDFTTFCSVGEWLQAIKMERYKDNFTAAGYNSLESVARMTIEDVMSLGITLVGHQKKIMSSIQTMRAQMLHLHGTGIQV

C[C@@H](N)COc1ccc(-c2cnc3ccc(N[C@H](C)c4cccc(F)c4)nn23)cc1.O=C(O)CCCCC(=O)O [DS-6051b]
inhibition at 0.04 µM [1]: 48.7% | inhibition at 0.04 µM [2]: 52.5% | inhibition at 0.04 µM [3]: 8% | inhibition at 0.04 µM [4]: -6.3% | inhibition at 0.04 µM [5]: -0.6% | inhibition at 0.04 µM [6]: 22% | inhibition at 0.04 µM [7]: 29.8% | inhibition at 0.04 µM [8]: 16.8% | inhibition at 0.04 µM [9]: 9.3% | inhibition at 0.04 µM [10]: 87.4% | inhibition at 0.04 µM [11]: 37.3% | inhibition at 0.04 µM [12]: 37.2% | inhibition at 0.04 µM [13]: -1.5% | inhibition at 0.04 µM [14]: 42.3% | IC50 [15]: 0.0018 µM | inhibition at 0.04 µM [16]: 4.1% | % Inhibition ([17]; 0.2μM, 1 mM ATP): almost completely inhibited | inhibition at 0.2 µM ([17]; 0.2μM, 1 mM ATP): 86.3% | IC50 ([17]; ATP: 1 mM): 0.0325 µM | inhibition at 0.04 µM [18]: 4.9% | inhibition at 0.04 µM [19]: 21.9% | inhibition at 0.04 µM [20]: 8.8% | inhibition at 0.04 µM [21]: -13.5% | inhibition at 0.04 µM [22]: -1.8% | IC50 [23]: resistant | Tumor volume (average / SE) ([24]; 3 mg/kg po, day 0, N 6): 290 mm3 | Tumor volume (average / SE) ([24]; 3 mg/kg po, day 2, N 6): 459 mm3 | Tumor volume (average / SE) ([24]; 3 mg/kg po, day 4, N 6): 550 mm3 | Tumor volume (average / SE) ([24]; 10 mg/kg po, day 0, N 6): 291 mm3 | Tumor volume (average / SE) ([24]; 10 mg/kg po, day 2, N 6): 341 mm3 | Tumor volume (average / SE) ([24]; 10 mg/kg po, day 4, N 6): 390 mm3 | Tumor volume (average / SE) ([24]; 30 mg/kg po, day 0, N 6): 286 mm3 | Tumor volume (average / SE) ([24]; 30 mg/kg po, day 2, N 6): 189 mm3 | Tumor volume (average / SE) ([24]; 30 mg/kg po, day 4, N 6): 73 mm3 | Tumor volume (average / SE) ([24]; 100 mg/kg po, day 0, N 6): 292 mm3 | Tumor volume (average / SE) ([24]; 100 mg/kg po, day 2, N 6): 111 mm3 | Tumor volume (average / SE) ([24]; 100 mg/kg po, day 4, N 6): 41 mm3 | Dose showing rapid tumor regression ([24]; once daily oral gavage, 4 days): ≥ 30 mg/kg | inhibition at 0.04 µM [25]: -9.6% | inhibition at 0.04 µM [26]: 7.2% | inhibition at 0.04 µM [27]: 47.8% | inhibition at 0.04 µM [28]: 3.7% | GI50 [29]: 0.0191 µM | inhibition at 0.04 µM [30]: 35.7% | inhibition at 0.04 µM [31]: 12.3% | inhibition at 0.04 µM [32]: 101% | IC50 [32]: a few nanomolar | IC50 ([32]; read-out: IC50): 0.00228 µM | inhibition at 0.2 µM ([33]; 0.2μM, 1 mM ATP): 95.8% | IC50 ([33]; ATP: 1 mM): 0.00928 µM | inhibition at 0.04 µM [34]: 4.2% | inhibition at 0.04 µM [35]: 4.5% | inhibition at 0.04 µM [36]: 69.3% | inhibition at 0.04 µM [37]: 20.2% | inhibition at 0.04 µM [38]: 0.6%
